Experimental data as given in PubChem BioAssay (NCI).
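Tested at 5 concentrations; 48 h exposure; 96-well plates; endpoints linearly interpolated, else capped at highest concentration. GI50 is the concentration that inhibits growth by half. TGI: concentration producing complete growth inhibition.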

Each compound was assayed on HT29 colon (assay: NCI anticancer screen, dose series, 48 h).

Point of comparison: `COc1cc2c(c(OC)c1OC)C(=O)[C@@H]1c3ccc([N+](=O)[O-])cc3C(=O)N(CCCBr)[C@H]21`, GI50 14.2 µM. Against it:
- c1cc[c]([Pb]([c]2ccccc2)[c]2ccccc2)cc1 — within 1.5-fold, 16.4 µM
- CCC(=O)c1c(C(F)(F)F)n([O-])c2ccc(C)cc2[n+]1=O — within 1.5-fold, 14.1 µM
- COc1ccc(C2SCC(=O)N2NC(=O)Nc2c(C)nc3ccccn23)cc1 (stereo not drawn) — higher, > 100 µM

Point of comparison: `c1cc[c]([Pb]([c]2ccccc2)[c]2ccccc2)cc1`, TGI 49.6 µM. Against it:
- COc1cc2c(c(OC)c1OC)C(=O)[C@@H]1c3ccc([N+](=O)[O-])cc3C(=O)N(CCCBr)[C@H]21 — higher, > 100 µM
- COc1ccc(CNc2nc3cc(C(F)(F)F)ccc3nc2C)cc1OC — higher, > 100 µM
- COc1cccc(/C=C2\C(=O)N(C(=O)c3ccc(NC(C)=O)cc3)N=C2C)c1 — higher, > 100 µM
- N#CCc1ccc(C(C#N)/C(CCCC(=O)Nc2cccc([N+](=O)[O-])c2)=N/NC(N)=S)cc1 (stereo not drawn) — higher, > 100 µM
- COC(C(O)c1ccc2c(c1)OCO2)P(=O)(c1ccccc1)c1ccccc1 (stereo not drawn) — higher, > 100 µM
- CC(C)c1ccc(C(c2ccc(OCC(=O)O)cc2)c2ccc(C(C)C)cc(=O)c2O)c(O)c(=O)c1 — higher, > 100 µM
- N#C/C(=C\c1cc2ccccc2c2ccccc12)c1ccccc1 — 2.7-fold lower, 18.1 µM
- CCOc1ccc2c(c1)[n+]([O-])c(-c1nc3ccccc3s1)c(N)[n+]2[O-] — higher, > 100 µM
- COc1ccc2c3c(coc13)C(CCC(=O)O)CC2 (stereo not drawn) — higher, > 100 µM
- CC(=O)N1C/C(=C\c2ccc(N(C)C)cc2)C(=O)/C(=C/c2ccc(N(C)C)cc2)C1 — higher, > 100 µM
- CCC(=O)c1c(C(F)(F)F)n([O-])c2ccc(C)cc2[n+]1=O — higher, > 50 µM
- COc1ccc(C2SCC(=O)N2NC(=O)Nc2c(C)nc3ccccn23)cc1 (stereo not drawn) — higher, > 100 µM
- COC1=CC2(C=CC1=O)c1cc(OC)c(OC)cc1CCN2C(=O)c1ccccc1 (stereo not drawn) — higher, > 100 µM
- Cc1[nH]c2ccccc2c1C1Cc2ccccc2N1C(=O)/C(Cl)=C/c1ccccc1 (stereo not drawn) — higher, > 100 µM

What follows are compounds tested on HOP-62 NSCLC (assay: NCI anticancer screen, dose series, 48 h).

Point of comparison: `COc1cc2c(c(OC)c1OC)C(=O)[C@@H]1c3ccc([N+](=O)[O-])cc3C(=O)N(CCCBr)[C@H]21`, TGI 41.4 µM. Against it:
- COc1ccc(/C(Cl)=C(\C=O)c2ccc([N+](=O)[O-])cc2)cc1 — within 1.5-fold, 52.8 µM
- Cc1ccc(-c2cc(=O)c3cc(C)c(C)c(C(=O)O)c3o2)cc1C — higher, > 100 µM
- O=C(/C=C/c1c(O)ccc2ccccc12)c1ccccc1 — higher, > 100 µM
- Cc1nc2ccccc2c(=O)n1-c1ccccc1F — higher, > 100 µM
- C=C[C@H]1C[C@@H]2C[C@@H]3[C@H]4C/C=C\C(=O)NCCCC5NC(=O)C(=C(O)/C=C/[C@@H]4CC(=O)[C@H]3[C@@H]2[C@H]1C)C5=O (stereo partly drawn) — 130-fold lower, 0.31 µM
- Fc1ccc(C2SCc3nc4ccccc4n32)cc1Cl (stereo not drawn) — within 1.5-fold, 55.9 µM
- C=C1CC[C@@H]2[C@](C)(COC(C)=O)[C@H](OC(C)=O)CC[C@@]2(C)[C@@H]1CC(Nc1ccc(S(=O)(=O)Nc2ncccn2)cc1)C1=CCOC1=O (stereo partly drawn) — 6.4-fold lower, 6.44 µM
- CC1=N/C(=C\c2cccc([N+](=O)[O-])c2)C(=O)O1 — higher, > 100 µM
- Cn1c2ccccc2c2c3[nH]c(=O)[nH]c(=O)c3c3c4ccccc4n(C)c3c21 — 7.1-fold lower, 5.83 µM
- CC(C)N1CN(C(C(=O)N[C@@H]2C(=O)N3C2SC(C)(C)C3C(=O)O)c2ccccc2)CSC1=S (stereo partly drawn) — higher, > 100 µM
- CC(C)c1cc2c(O)c(c1)Cc1cc(C(C)C)cc(c1O)Cc1cc(C(C)C)cc(c1O)Cc1cc(C(C)C)cc(c1O)C2 — higher, > 100 µM
- COc1ccc(/C=C\c2cc(OC)c(OC)c(OC)c2)cc1OC(=O)NCCN(C)C — higher, > 100 µM
- CCCCOC(=O)NC(=O)c1cn(C2CCCCC2)c(=O)[nH]c1=O — 1.6-fold higher, 65.9 µM
- CC(C)CCCC(=O)CCCCCCC(=O)CCN(O)C(=O)C(N)CO (stereo not drawn) — within 1.5-fold, 40.8 µM
- Cc1ccc(NC(=O)NCCCOc2ccc(N3C(N)=NC(N)=NC3(C)C)cc2Cl)cc1S(=O)(=O)F — higher, > 100 µM
- CC[CH2][Sn]([Cl])([Cl])[CH2]CC.Oc1ccccc1C=NCCN=Cc1ccccc1O — 1.6-fold lower, 25.4 µM
- COc1cc2c(c(OC)c1)C1(CC(CC#N)C2)SCCS1 (stereo not drawn) — higher, > 100 µM
- CCOC(=O)CCn1[nH]c(=O)c(Cl)c(Cl)c1=O — higher, > 100 µM
- COc1ccc(CNc2nc3cc(C(F)(F)F)ccc3nc2C)cc1OC — 1.7-fold higher, 69.9 µM
- COc1cccc(/C=C2\C(=O)N(C(=O)c3ccc(NC(C)=O)cc3)N=C2C)c1 — higher, > 100 µM
- N#CCc1ccc(C(C#N)/C(CCCC(=O)Nc2cccc([N+](=O)[O-])c2)=N/NC(N)=S)cc1 (stereo not drawn) — higher, > 100 µM
- COC(C(O)c1ccc2c(c1)OCO2)P(=O)(c1ccccc1)c1ccccc1 (stereo not drawn) — higher, > 100 µM
- CC(C)c1ccc(C(c2ccc(OCC(=O)O)cc2)c2ccc(C(C)C)cc(=O)c2O)c(O)c(=O)c1 — 1.6-fold lower, 26.2 µM
- N#C/C(=C\c1cc2ccccc2c2ccccc12)c1ccccc1 — 2.4-fold lower, 17.6 µM

Point of comparison: `C=C1CC[C@@H]2[C@](C)(COC(C)=O)[C@H](OC(C)=O)CC[C@@]2(C)[C@@H]1CC(Nc1ccc(S(=O)(=O)Nc2ncccn2)cc1)C1=CCOC1=O` (stereo partly drawn), GI50 3.02 µM. Against it:
- C=C[C@H]1C[C@@H]2C[C@@H]3[C@H]4C/C=C\C(=O)NCCCC5NC(=O)C(=C(O)/C=C/[C@@H]4CC(=O)[C@H]3[C@@H]2[C@H]1C)C5=O (stereo partly drawn) — 18-fold lower, 0.165 µM
- Cn1c2ccccc2c2c3[nH]c(=O)[nH]c(=O)c3c3c4ccccc4n(C)c3c21 — within 1.5-fold, 2.03 µM
- COC(=O)c1c(C)[nH]c(/C=C2\N=C(c3ccc[nH]3)C=C2OC)c1C — 3.9-fold lower, 0.769 µM
- Cc1ccc(NC(=O)NCCCOc2ccc(N3C(N)=NC(N)=NC3(C)C)cc2Cl)cc1S(=O)(=O)F — 3.1-fold higher, 9.46 µM
- CC[CH2][Sn]([Cl])([Cl])[CH2]CC.Oc1ccccc1C=NCCN=Cc1ccccc1O — 4.1-fold higher, 12.3 µM
- COc1cc2c(c(OC)c1OC)C(=O)[C@@H]1c3ccc([N+](=O)[O-])cc3C(=O)N(CCCBr)[C@H]21 — 4.6-fold higher, 13.9 µM

`C/C=C1/C(=C/c2[nH]c(/C=c3\[nH]/c(=C/C4=NC(=O)C(CC)=C4C)c(C)c3CCC(=O)O)c(CCC(=O)O)c2C)NC(=O)C1C` (stereo not drawn) gave a GI50 of over 150 µg/mL.

Work on `C/C=C1/C(=C/c2[nH]c(/C=c3\[nH]/c(=C/C4=NC(=O)C(CC)=C4C)c(C)c3CCC(=O)O)c(CCC(=O)O)c2C)NC(=O)C1C` (stereo not drawn) yielded a TGI of over 150 µg/mL.
